The values below are quoted from earlier work in US8486874B2, “Water-soluble processing oil agent” (Idemitsu Kosan Co., Ltd., priority 2009, dated 2013).

The conditions of series [1]: Peroral rat.
For series [2] the following is noted: compared with dicyclohexylamine, Table 1 data.
For series [3] the following is noted: Percutaneous rabbit.

Take `C1CCC(NC2CCCCC2)CC1` [Dicyclohexylamine, reference compound]: the LD50 result in series [1] is “LD50 373 mg/kg^1)”.
With `CN(C1CCCCC1)C1CCCCC1` [Methyldicyclohexylamine], in series [2], the “Toxicity relative to dicyclohexylamine” value is listed as “considerably lower”. The LD50 entry in series [1] was “LD50 446 mg/kg^1)”. In series [3], the LDLo result was “LDLo 2 g/kg^1)”.
